Measured values as given in patent US10092574B2, “Inhibitors of polynucleotide repeat-associated RNA foci and uses thereof” (VALORISATION-RECHERCHE, LIMITED PARTNERSHIP, priority 2013, dated 2018).

Key:
[1] = system: Normal or DM1 myoblasts; experiment: Cytotoxicity assay (Hoescht 33342 / propidium iodide, High Content Screening microscope); format: cell-based, human; conditions: for cellular toxicity: 7 days (FIG. 10)
Procedure: The cellular toxicity of compounds 15 and 32, and their analogs was also measured using a validated cytotoxicity assay. Normal or DM1 myoblasts were treated with 20 μM of compound or DMSO. The ratio of viable cells was measured with a High Content Screening microscope in live cells treated with Hoescht 33342 (labels all cells) and propidium iodide (labels dead cells). The total number of cells was counted and the number of dead cells was subtracted to obtain the number of viable cells, which is presented as a ratio (drug-treated versus DMSO-treated cells). The percentage of dead cells was also measured using propidium iodide.
The cellular toxicity of the compounds was also measured in a dose-response assay. In this assay, normal (M908) and patient (DM1) myoblasts were treated for 7 days with compound 32 or 196 at concentrations varying from 5 to 60 μM. Cell number and cell death was quantified by High Content Screening microscope, as specified above. […] Indeed, the ratio of viable cells at 20 μM of compound 15 is 0.22 (FIG. 10), while for compound 196, an analogue of compound 15, it is above 1 at the same concentration (FIG. 14C).

[2] = system: CUGBP1; experiment: Western blot of CUGBP1 protein levels in myoblasts; format: cell-based, human; conditions: 20 μM, 7 days (FIG. 7); for reduction of CUGBP1 levels: DM1 myoblasts
Procedure: Human myoblasts were obtained from the Myosix institute associated with the Association Frangaise contre les Myopathies (AFM). Five primary myoblast lines were obtained as controls, and one line from a DM1 patient with a 3.8 Kb CTG triplet amplification corresponding to approximately 1250 CTG repeats. The human myoblasts are cultivated in HAM-F10 media (SIGMA N6635) with 15% FBS, 1% chick embryo extract, and 390 ng/ml of dexamethasone. One day before adding compounds, 2×10^5 cells were plated in 100 mm plates (for CUGBP1 western blot or RT-PCR alternative splicing assay) or 2×10^4 cells/well are seeded in 12-well plates containing 12 mm round glass coverslips (for FISH to detect RNA foci). One day after plating, media is replaced with fresh media containing the compounds at the desired concentration in this manner: the media is put in a screw-cap tube and heated at 37° C. The 20 mM compound stock in 100% DMSO is pipetted directly into the media and the tube is mixed well by inversion and gentle vortexing, and immediately overlayed on the cells. Pure DMSO is used for the control cells. Final concentrations on myoblasts are never higher than 0.5%. This procedure is repeated twice during the seven days of treatment, the media is thus replaced with fresh media containing compound every 2-3 days. Cells are collected or fixed for FISH after one week.
For Western blots, CUGBP1 was detected with the 3B1-3D11 monoclonal antibody (mAb) (SIGMA C5112) and GAPDH was detected with the 6C5 mAb (Millipore MAB374). The enhanced chemiluminescence signal (ECL) was acquired and quantified with the ChemiDoc™ MP imaging system (Bio-Rad). For alternative splicing assays, total RNA was collected with Trizol™ (Invitrogen), and 1 μg was used for reverse transcription with random primers with the RevertAid™ H Minus M-MuL RT (Fermentas) according to manufacturer's instructions. For MBNL2, PCR amplification was performed with primers 5′-[…]-3′ (SEQ ID NO:1) and 5′-[…]-3′ (SEQ ID NO:2). SERCA1 was amplified with primers 5′-[…]-3′ (SEQ ID NO:3) and 5′-[…]-3′ (SEQ ID NO:4). For TNNT2 (cardiac Troponin T), PCR was carried out with primers 5′-[…]-3′ (SEQ ID NO:5) and 5′-[…]-3′ (SEQ ID NO:6). The alternative splicing of the hnRNPA2/B1 transcript was detected with the primers 5′-[…]-3′ (SEQ ID NO:7) and 5′-[…]-3′ (SEQ ID NO:8). PCR was performed with Taq using standard conditions but the number of amplification cycles was optimized to be in the quantitative range for each gene. The products of PCR amplification were resolved on 3.5% agarose gels containing Gelred™ (Biotium) and images were acquired and quantified with the ChemiDoc™ MP imaging system (Bio-Rad). […]

[3] = system: luciferase-CUG200 mRNA; experiment: Dose-response of nuclear export/translation of luciferase-CUG200 reporter mRNA in C2C12 myoblast cell line; format: cell-based, murine; conditions: for EC50: Mus musculus, read-out: EC50 (luciferase from luciferase-CUG200 mRNA)
Procedure: C2C12 murine myoblast cells and Phoenix retrovirus packaging cells were cultivated in DMEM supplemented with 10% FBS. Phoenix cells were transfected with the desired retroviral vector by the Calcium-Phosphate method and, 48 hours after transfection, retrovirus-containing supernatant was supplemented with polybrene and deposited on cells to infect. C2C12 Tet-Off cell lines were generated by infecting cells with the retrovirus pTet-Off IN (Clontech) and selecting for Doxycycline (Dox)-regulated clones. Cell lines expressing the LacZ-5CUG, LacZ-145CUG, LUC-5CUG or LUC-200CUG transcripts were generated by infecting C2C12 Tet-Off cells with the desired reporter construct in the pRevTRE plasmid (Clontech) and selecting for stable clones with inducible expression. The 3′UTR of human DMPK containing 5 CTG repeats or 200 CTG repeats was cloned downstream of the luciferase or beta-galactosidase open reading frames. The C2C12 cell line(s) are cultivated in media containing 1 ng/ml Dox to repress transcription of the reporter constructs.
The two compounds identified by the screening assay described above, which were named compound 15 and 32, have the structure depicted in FIG. 3. Compound 15 has a para-sulfonamide structure, and compound 32 is a benzyl methylthiophene amide. […] The dose-response effect of candidate drugs 15 and 32 on the nuclear export of luciferase-CUG200 mRNA was assessed in the C2C12 myoblast cell line. The amount of CUG repeat RNA that get exported and properly translated into luciferase in response to treatment with varying concentrations of target drugs was measured in order to determine the dose-response curves.

Row | SMILES | cellular toxicity ([1]; 20 μM) | ratio of viable cells (drug-treated versus DMSO-treated) ([1]; 20 μM, 7 days (FIG. 10, FIG. 14C)) | reduction of CUGBP1 levels [2] | change of CUGBP1 levels in WT cells ([2]; WT myoblasts) | concentration at which plateau / peak of maximal effect was reached [3] | EC50 [3] | main phenotype at higher concentrations ([1]; normal (M908) and DM1 myoblasts, 7 days, 5 to 60 μM) | cytotoxicity in dose-response assay ([1]; normal (M908) and DM1 myoblasts, 7 days, concentration of 20 μM and below (FIGS. 14A-D))
1 | CCCN(CCC)S(=O)(=O)c1ccc(NS(=O)(=O)Cc2ccccc2)cc1 [Compound 15] | some toxicity | 0.22 | 85% | does not change | 15 µM | 6.8 µM |  | 
2 | CCCc1c(C(=O)N(Cc2ccccc2)Cc2cccs2)cnn1-c1ccccc1 [Compound 32] | little toxicity |  | 30% |  | 5 µM | 2.5 µM | cytostatic effect | little cytotoxicity
